Measurements from US8273775B2, “Non-steroidal brassinosteroid mimetic” (priority 2006, dated 2012).

Test system: gene expression in Col-0 seedling shoots
Test: Microarray analysis (ATH1 Affymetrix) after BL or abrasin treatment
Format: in vivo, Arabidopsis
Description: FIG. 14: Clustering of gene expression profiles by QT-clust analysis. Clusters illustrating the major patterns of the data sets. Points: BIK-30: 30 μM abrasin 30 min; BL-30: 1 μM brassinolide 30 min; DMSO-30: control DMSO 30 min; BIK-120: 30 μM abrasin 120 min; BL-120: 1 μM brassinolide 120 min; DMSO-120: control DMSO 120 min.
Col-0 seeds were germinated vertically on ½ MS medium for 7 days under 16 h light/8 h dark cycles. The seedlings were overlaid with liquid ½ MS medium containing 1 μM brassinolide (BL, Fuji Chemical Industries, Ltd., Toyama, Japan), 30 μM abrasin (BIK, ChemBridge Corporation) and DMSO and treated for 30 and 120 min. The shoot parts were collected for RNA isolation. All sampling points were performed in three independent experiments. RNA was extracted using RNeasy kit (Qiagene). […] total RNA per array was used to hybridise the ATH1 Affymetrix Arabidopsis arrays according to standard procedure. The overrepresentation analyses were performed using BiNGO software (Maere et al., 2005).
We performed a microarray analysis using the Arabidopsis whole genome chip (Affymetix) to determine whether abrasin activated the expression of BR-inducible genes at transcriptional level. Wild-type Col-0 seedlings were exposed to 1 μM BL, 30 μM ABRASIN and DMSO (mock-treatment) for two time points (30 min and 120 min) and the shoot parts were collected for RNA isolation. The analysis of the variance of the normalized gene expression data took in account the variability parameters affecting the expression level: type of hormone treatment, duration of treatment and the interaction between these two.

O=C(O)CCC(=O)Nc1ccc(Br)cn1 [abrasin, 4-[(5-bromo-2-pyridinyl)amino]-4-oxobutanoic acid]
expression of BR biosynthesis genes (CPD, DWF4, BR6OX2), Cluster 1 (1 μM BL, 30 μM ABRASIN): down-regulated
expression of WRKY transcription factors, DOF-type proteins, lectin receptor-like kinases, U-box proteins, HAESA (1 μM BL, 30 μM ABRASIN): induces the expression
expression of genes involved in the auxin pathway (IAA29, IAA2) (1 μM BL, 30 μM ABRASIN): significantly down-regulated
induction of early auxin-inducible SAUR family genes, Cluster 3 (1 μM BL, 30 μM ABRASIN, 30 and 120 min): had an effect only after 2 hours
Fold-change AT1G04330 expressed protein (30 min): 1.17
Fold-change AT1G05470 endonuclease/exonuclease/phosphatase family protein (30 min): 1.42
Fold-change AT1G06520 Encodes a membrane associated mitochondrial localized protein (30 min): 1.26
Fold-change AT1G06570 4-hydroxyphenylpyruvate dioxygenase (HPD) (30 min): 0.91
Fold-change AT1G10550 xyloglucan:xyloglucosyl transferase (30 min): 1.26
Fold-change AT1G12710 F-box family protein (30 min): 0.88
Fold-change AT1G12750 rhomboid family protein (30 min): 1.46
Fold-change AT1G14130 2-oxoglutarate-dependent dioxygenase (30 min): 1.10
Fold-change AT1G14700 purple acid phosphatase (30 min): 0.53
Fold-change AT1G16640 transcriptional factor B3 family protein (30 min): 1.14
Fold-change AT1G17230 leucine-rich repeat family protein (30 min): 1.09
Fold-change AT1G18020; AT1G17990 [AT1G18020, 12-oxophytodienoate reductase, (30 min): 1.31
Fold-change AT1G19320 pathogenesis-related thaumatin family protein (30 min): 0.52
Fold-change AT1G20350 mitochondrial import inner membrane translocase subunit (30 min): 1.00
Fold-change AT1G21050 expressed protein (30 min): 0.32
Fold-change AT1G21760 F-box family protein (30 min): 0.76
Fold-change AT1G22360 UDP-glucoronosyl/UDP-glucosyl transferase family protein (30 min): 0.82
Fold-change AT1G23080 auxin efflux carrier protein (PIN7) (30 min): 0.81
Fold-change AT1G26800 zinc finger (C3HC4-type RING finger) family protein, (30 min): 1.07
Fold-change AT1G27730 zinc finger (C2H2 type) family protein (30 min): 0.56
Fold-change AT1G28130 encodes an IAA-amido synthase (30 min): 0.64
Fold-change AT1G28190 expressed protein (30 min): 2.79
Fold-change AT1G28480 glutaredoxin family protein (30 min): 1.02
Fold-change AT1G31040 zinc-binding protein-related (30 min): 1.35
Fold-change AT1G31310 hydroxyproline-rich glycoprotein family protein (30 min): 1.17
Fold-change AT1G31770 ABC transporter family protein (30 min): 0.91
Fold-change AT1G32190 expressed protein (30 min): 0.73
Fold-change AT1G32690 expressed protein (30 min): 0.38
Fold-change AT1G36940 expressed protein (30 min): 0.45
Fold-change AT1G49780 U-box domain-containing protein (30 min): 0.71
Fold-change AT1G53870; AT1G53890 [AT1G53870, expressed protein (30 min): 0.43
Fold-change AT1G54050 17.4 kDa class III heat shock protein (HSP17.4-CIII) (30 min): 1.16
Fold-change AT1G54200 expressed protein (30 min): 1.26
Fold-change AT1G55920 serine O-acetyltransferase (30 min): 2.19
Fold-change AT1G57560 myb family transcription factor (MYB50) (30 min): 1.19
Fold-change AT1G59590 expressed protein (30 min): 1.99
Fold-change AT1G59660 nucleoporin family proteinmily (30 min): 1.45
Fold-change AT1G62300 WRKY family transcription factor (30 min): 1.58
Fold-change AT1G63050 membrane bound O-acyl transferase (MBOAT) family protein (30 min): 0.75
Fold-change AT1G66160 U-box domain-containing protein, (30 min): 2.03
Fold-change AT1G66890 expressed protein (30 min): 0.65
Fold-change AT1G68330 expressed protein (30 min): 1.76
Fold-change AT1G68810 basic helix-loop-helix (bHLH) family protein (30 min): 0.80
Fold-change AT1G69160 expressed protein (30 min): 0.67
Fold-change AT1G70990 proline-rich family protein (30 min): 1.70
Fold-change AT1G71030 Encodes a putative myb family transcription factor (30 min): 0.92
Fold-change AT1G72060 expressed protein (30 min): 2.19
Fold-change AT1G72180 leucine-rich repeat transmembrane protein kinase (30 min): 0.54
Fold-change AT1G72800 nuM1-related, contains (30 min): 1.15
Fold-change AT1G75270 dehydroascorbate reductase (30 min): 1.16
Fold-change AT1G75500 nodulin MtN21 family protein (30 min): 0.67
Fold-change AT1G76240 expressed protein, (30 min): 0.40
Fold-change AT1G76410 zinc finger (C3HC4-type RING finger) (30 min): 0.54
Fold-change AT1G79110 expressed protein (30 min): 0.66
Fold-change AT1G79630 protein phosphatase 2C family protein (30 min): 0.62
Fold-change AT1G80440 kelch repeat-containing F-box family protein (30 min): 1.36
Fold-change AT2G01300 expressed protein (30 min): 0.73
Fold-change AT2G01990 expressed protein, (30 min): 1.89
Fold-change AT2G04240 zinc finger (C3HC4-type RING finger) family protein (30 min): 0.77
Fold-change AT2G05540 glycine-rich protein (30 min): 0.71
Fold-change AT2G12290; AT4G19700 [AT2G12290, expressed protein]; [AT4G19700, expressed protein] (30 min): 0.38
Fold-change AT2G18010 auxin-responsive family protein (SAUR10) (30 min): 1.35
Fold-change AT2G19800 expressed protein (30 min): 2.29
Fold-change AT2G22860 phytosulfokines 2 (PSK2) (30 min): 0.68
Fold-change AT2G23180 cytochrome P450, putative (30 min): 0.67
Fold-change AT2G23320 WRKY family transcription factor (30 min): 1.41
Fold-change AT2G26530 expressed protein (30 min): 1.24
Fold-change AT2G26710 cytochrome p450 family (BAS1) (30 min): 0.72
Fold-change AT2G28510 Dof-type zinc finger domain-containing protein (30 min): 1.28
Fold-change AT2G29340 short-chain dehydrogenase/reductase (SDR) family protein (30 min): 1.55
Fold-change AT2G29990 pyridine nucleotide-disulphide oxidoreductase family protein (30 min): 1.43
Fold-change AT2G30070 potassium transporter (KUP1) (30 min): 0.61
Fold-change AT2G31230 encodes a member of the ERF (ethylene response factor) (30 min): 2.13
Fold-change AT2G34650 protein kinase PINOID (PID) (30 min): 1.04
Fold-change AT2G36220 expressed protein (30 min): 1.10
Fold-change AT2G37590 Dof-type zinc finger domain-containing protein (30 min): 1.52
Fold-change AT2G38470 WRKY family transcription factor (30 min): 2.02
Fold-change AT2G39710 aspartyl protease family protein (30 min): 2.42
Fold-change AT2G40340; AT2G40350 [AT2G40340, encodes a member of the DREB subfamily A-2 of ERF/AP2 (30 min): 1.40
Fold-change AT2G41250 haloacid dehalogenase-like hydrolase family protein (30 min): 0.82
Fold-change AT2G41640 expressed protein (30 min): 1.96
Fold-change AT2G42280 basic helix-loop-helix (bHLH) family protein (30 min): 0.67
Fold-change AT2G43060 expressed protein, similar to cDNA bHLH transcription factor (30 min): 0.31
Fold-change AT2G43280 far-red impaired responsive family protein (30 min): 0.78
Fold-change AT2G43290 calmodulin-like protein (MSS3) (30 min): 0.81
Fold-change AT2G44130 kelch repeat-containing F-box family protein (30 min): 1.13
Fold-change AT2G44500 expressed protein (30 min): 1.26
Fold-change AT2G45210 auxin-responsive protein-related (30 min): 0.34
Fold-change AT2G45680 TCP family transcription factor (30 min): 0.50
Fold-change AT2G46225 Encodes a subunit of the WAVE complex (30 min): 1.15
Fold-change AT2G47440 DNAJ heat shock N-terminal domain-containing protein (30 min): 1.07
Fold-change AT3G04210 disease resistance protein (TIR-NBS class), putative, (30 min): 2.18
Fold-change AT3G09920 phosphatidylinositol-4-phosphate 5-kinase family protein (30 min): 1.56
Fold-change AT3G12920 expressed protein (30 min): 0.45
Fold-change AT3G13040 myb family transcription factor (30 min): 0.93
Fold-change AT3G13510 expressed protein (30 min): 0.85
Fold-change AT3G13980 expressed protein (30 min): 0.25
Fold-change AT3G14370 protein kinase family protein (30 min): 1.10
Fold-change AT3G14560 expressed protein (30 min): 0.59
Fold-change AT3G16570 rapid alkalinization factor (RALF) family protein (30 min): 0.54
Fold-change AT3G17860 expressed protein (30 min): 0.78
Fold-change AT3G18830 polyol/cyclitol/monosaccharide-H+-symporte (30 min): 1.64
Fold-change AT3G19380 U-box domain-containing protein (30 min): 0.67
Fold-change AT3G23030 auxin-responsive protein/indoleacetic acid-induced protein 2 (IAA2) (30 min): 0.55
Fold-change AT3G23550 MATE efflux family protein (30 min): 0.67
Fold-change AT3G25710 basic helix-loop-helix (bHLH) family protein (30 min): 0.48
Fold-change AT3G25900 homocysteine S-methyltransferase 1 (HMT-1) (30 min): 1.32
Fold-change AT3G26910 hydroxyproline-rich glycoprotein family protein (30 min): 2.49
Fold-change AT3G30180 cytochrome p450 enzyme (30 min): 0.09
Fold-change AT3G46880 expressed protein, (30 min): 1.50
Fold-change AT3G47800 aldose 1-epimerase family protein (30 min): 0.91
Fold-change AT3G48970 copper-binding family protein (30 min): 0.40
Fold-change AT3G49810 U-box domain-containing protein (30 min): 1.29
Fold-change AT3G50650 scarecrow-like transcription factor 7 (SCL7) (30 min): 1.51
Fold-change AT3G50660 steroid 22-alpha-hydroxylase (CYP90B1) (DWF4) (30 min): 0.47
Fold-change AT3G50750 brassinosteroid signalling positive regulator-related (BEH1) (30 min): 0.63
Fold-change AT3G52490 heat shock protein-related (30 min): 1.17
Fold-change AT3G53810 lectin protein kinase (30 min): 2.28
Fold-change AT3G54950 patatin-related, (30 min): 0.58
Fold-change AT3G55120 chalcone-flavanone isomerase (30 min): 0.94
Fold-change AT3G55150 exocyst subunit EXO70 family protein (30 min): 3.44
Fold-change AT3G55840 expressed protein (30 min): 1.05
Fold-change AT3G61460 zinc finger (C3HC4-type RING finger) family protein (BRH1) (30 min): 0.43
Fold-change AT3G63300 expressed protein (30 min): 1.26
Fold-change AT4G01680 myb family transcription factor (MYB55) (30 min): 0.21
Fold-change AT4G02410 lectin protein kinase family protein (30 min): 2.60
Fold-change AT4G08040 1-aminocyclopropane-1-carboxylate synthase, putative (30 min): 0.08
Fold-change AT4G09460 myb family transcription factor (30 min): 1.50
Fold-change AT4G12390 invertase/pectin methylesterase inhibitor family protein (30 min): 0.75
Fold-change AT4G12410 auxin-responsive family protein (30 min): 0.66
Fold-change AT4G14130 xyloglucan:xyloglucosyl transferase (30 min): 0.37
Fold-change AT4G15975 zinc finger (C3HC4-type RING finger) family protein (30 min): 2.33
Fold-change AT4G16146 expressed protein (30 min): 0.91
